Test results from ChEMBL document CHEMBL4049435, “Development of a Series of Kynurenine 3-Monooxygenase Inhibitors Leading to a Clinical Candidate for the Treatment of Acute Pancreatitis” (J Med Chem, 2017).
Calls of active or inactive are those of the source. The rule behind the calls is not given here.

How the values were obtained:
[1] = Solubility of the compound in saline measured after 24 hrs; type: physicochemical
[2] = Permeability of the compound by PAMPA; type: physicochemical; conditions: read-out: permeability
serum albumin = serum albumin (Homo sapiens, UniProt P02768); test: Binding affinity to human serum albumin by HPLC analysis; type: ADME; conditions: read-out: PB (converted)
[3] = Lipophilicity, log D of the compound at pH 7.4 by RP-HPLC analysis; type: physicochemical; conditions: buffer
[4] = biological target: T1, Kynurenine 3-monooxygenase (Homo sapiens, UniProt O15229)
Target sequence in this assay (O15229 whole entry): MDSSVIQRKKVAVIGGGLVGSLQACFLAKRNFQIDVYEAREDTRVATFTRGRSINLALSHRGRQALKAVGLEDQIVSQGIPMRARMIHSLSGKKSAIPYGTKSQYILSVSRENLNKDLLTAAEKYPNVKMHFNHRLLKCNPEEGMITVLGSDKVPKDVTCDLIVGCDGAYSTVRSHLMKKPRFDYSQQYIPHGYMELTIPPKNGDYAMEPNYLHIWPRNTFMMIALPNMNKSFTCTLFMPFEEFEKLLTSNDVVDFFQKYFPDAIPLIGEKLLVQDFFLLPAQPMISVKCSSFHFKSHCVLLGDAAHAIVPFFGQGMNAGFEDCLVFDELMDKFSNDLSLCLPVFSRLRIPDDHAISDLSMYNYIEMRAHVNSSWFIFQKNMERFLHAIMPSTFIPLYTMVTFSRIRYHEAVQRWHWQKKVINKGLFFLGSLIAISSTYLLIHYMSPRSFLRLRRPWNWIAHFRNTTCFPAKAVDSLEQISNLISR

[5] = biological target: T1, Kynurenine 3-monooxygenase; test: Inhibition of full length human GST-tagged KMO expressed in baculovirus infected Sf9 insect cell membranes using kynurenine as substrate measured after 1 hr by RapidFire high-throughput mass spectrometric analysis
Target sequence in this assay (O15229 whole entry): as above

[6] = Protein binding in human plasma; type: ADME, cell-free; conditions: read-out: PPB (converted)
[7] = Drug uptake in plasma of rat model of cerulean-induced acute pancreatitis at 20 mg/kg, iv administered as bolus dose followed by 2.2 mg/kg/hr, iv infusion for 5 hrs; type: ADME, organism-based
[8] = biological target: T1, Kynurenine 3-monooxygenase; remark: listed apart in the source
Target sequence in this assay (O15229 whole entry, looked up): as the sequence (O15229 whole entry) above

Rattus norvegicus [9] = test: (§1) In vivo inhibition of KMO in rat assessed as increase in kynurenine levels in plasma at […], iv administered as bolus followed by […], iv infusion for 3 hrs; type: functional, organism-based
Rattus norvegicus [10] = test: Organoprotective activity in lung of acute pancreatitis rat model assessed as decrease in levels of protein leak in bronchoalveolar lavage fluid at 20 mg/kg, iv as bolus dose administered 1 hr post acute pancreatitis induction followed by drug administration at 2.2 mg/kg/hr, iv as infusion over 5 hrs; type: functional, organism-based
Rattus norvegicus [11] = test: (§2) Effect on circulating tryptophan levels in rat plasma at […], iv administered as bolus dose followed by […], iv infusion for 3 hrs; type: functional, organism-based
Rattus norvegicus [12] = test: as §2; type: functional, organism-based; remark: listed apart in the source
Rattus norvegicus [13] = test: Protection against multiple organ dysfunction syndrome in acute pancreatitis-induced rat assessed as decrease in stress response plasma glucose levels at 20 mg/kg, iv as bolus dose administered 1 hr post acute pancreatitis induction followed by drug administration at 2.2 mg/kg/hr, iv as infusion over 5 hrs; type: functional, organism-based
Rattus norvegicus [14] = test: Decrease in 3-hydroxykynurenine level in plasma of rat model of cerulean-induced acute pancreatitis at 20 mg/kg, iv administered as bolus dose followed by 2.2 mg/kg/hr 5 hrs iv infusion; type: functional, organism-based
Rattus norvegicus [15] = test: Increase in kynurenic acid levels in iv dosed rat plasma measured post last dose; type: functional, organism-based
Rattus norvegicus [16] = test: Increase in kynurenine level in plasma of rat model of cerulean-induced acute pancreatitis at 20 mg/kg, iv administered as bolus dose followed by 2.2 mg/kg/hr 5 hrs iv infusion; type: functional, organism-based
Rattus norvegicus [17] = test: as §1; type: functional, organism-based; remark: listed apart in the source
Homo sapiens = organism: Homo sapiens; test: Inhibition of IDO (unknown origin)
Rattus norvegicus [18] = test: In vivo inhibition of KMO in iv dosed rat assessed as decrease in circulating 3-hydroxykynurenine levels in plasma measured post last dose; type: functional, organism-based
[19] = biological target: Tryptophan 2,3-dioxygenase (Homo sapiens) (UniProt P48775); test: Inhibition of TDO (unknown origin)
Rattus norvegicus [20] = test: as §2; type: functional, organism-based; remark: listed apart in the source
Rattus norvegicus [21] = test: (§3) Organoprotective activity in lung of acute pancreatitis rat model assessed as alveolar-epithelial thickening at 20 mg/kg, iv as bolus dose administered 1 hr post acute pancreatitis induction followed by drug administration at 2.2 mg/kg/hr, iv as infusion over 5 hrs by haematoxylin/eosin stain based light microscopic analysis; type: functional, organism-based
[22] = biological target: T2, Kynurenine--oxoglutarate transaminase 1 (Homo sapiens) (UniProt Q16773); test: Inhibition of KAT1 (unknown origin)
T2 sequence (whole entry): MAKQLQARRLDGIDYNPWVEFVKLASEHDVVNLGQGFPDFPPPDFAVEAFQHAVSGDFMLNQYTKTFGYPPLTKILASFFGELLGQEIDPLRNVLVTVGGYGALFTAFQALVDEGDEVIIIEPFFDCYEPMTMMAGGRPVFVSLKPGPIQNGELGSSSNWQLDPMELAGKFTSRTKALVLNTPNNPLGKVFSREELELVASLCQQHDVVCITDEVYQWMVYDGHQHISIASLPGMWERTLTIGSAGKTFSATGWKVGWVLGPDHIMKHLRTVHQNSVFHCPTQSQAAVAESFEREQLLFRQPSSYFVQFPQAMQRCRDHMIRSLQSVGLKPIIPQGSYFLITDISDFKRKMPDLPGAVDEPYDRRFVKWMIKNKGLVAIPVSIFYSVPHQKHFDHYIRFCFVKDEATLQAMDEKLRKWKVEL

Rattus norvegicus [23] = test: Increase in anthranilic acid levels in iv dosed rat plasma measured post last dose; type: functional, organism-based
Rattus norvegicus [24] = test: Organoprotective activity in kidney of acute pancreatitis […] assessed as reduction in apoptotic cell count in the outer medullary stripe at 20 mg/kg, iv as bolus dose administered 1 hr post acute pancreatitis induction followed by drug administration at 2.2 mg/kg/hr, iv as infusion over 5 hrs by TUNEL staining analysis; type: functional, organism-based
[25] = biological target: T1, Kynurenine 3-monooxygenase; remark: listed apart in the source
Target sequence in this assay (O15229 whole entry, looked up): as the sequence (O15229 whole entry) above

Rattus norvegicus [26] = test: Organoprotective activity against acute pancreatitis-induced pancreatic injury in rat assessed as decrease in serum amylase levels at 20 mg/kg, iv as bolus dose administered 1 hr post acute pancreatitis induction followed by drug administration at 2.2 mg/kg/hr, iv as infusion over 5 hrs; type: functional, organism-based
[27] = biological target: Kynurenine/alpha-aminoadipate aminotransferase, mitochondrial (Homo sapiens) (UniProt Q8N5Z0); test: Inhibition of KAT2 (unknown origin)
[28] = biological target: T3, Kynureninase (Homo sapiens) (UniProt Q16719); test: Inhibition of kynureninase (unknown origin)
T3 sequence (whole entry): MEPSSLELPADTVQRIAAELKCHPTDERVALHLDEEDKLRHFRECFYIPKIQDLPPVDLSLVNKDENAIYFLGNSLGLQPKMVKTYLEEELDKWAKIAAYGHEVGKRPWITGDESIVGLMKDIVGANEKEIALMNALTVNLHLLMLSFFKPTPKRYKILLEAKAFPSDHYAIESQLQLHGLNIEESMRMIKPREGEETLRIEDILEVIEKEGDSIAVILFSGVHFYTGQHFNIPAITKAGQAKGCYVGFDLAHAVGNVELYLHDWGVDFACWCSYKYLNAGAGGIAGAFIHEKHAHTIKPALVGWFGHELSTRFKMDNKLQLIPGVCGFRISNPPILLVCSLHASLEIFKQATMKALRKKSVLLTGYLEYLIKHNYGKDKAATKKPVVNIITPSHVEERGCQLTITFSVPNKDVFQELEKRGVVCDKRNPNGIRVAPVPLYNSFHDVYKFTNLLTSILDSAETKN

Rattus norvegicus [29] = test: as §3, with “inflammatory infiltrates” for “alveolar-epithelial thickening”; type: functional, organism-based
Rattus norvegicus [30] = test: Organoprotective activity against acute pancreatitis-induced kidney damage in rat assessed as decrease in plasma creatinine levels at 20 mg/kg, iv as bolus dose administered 1 hr post acute pancreatitis induction followed by drug administration at 2.2 mg/kg/hr, iv as infusion over 5 hrs; type: functional, organism-based
Rattus norvegicus [31] = test: as §1; type: functional, organism-based; remark: listed apart in the source

Sequence of serum albumin (P02768 whole entry): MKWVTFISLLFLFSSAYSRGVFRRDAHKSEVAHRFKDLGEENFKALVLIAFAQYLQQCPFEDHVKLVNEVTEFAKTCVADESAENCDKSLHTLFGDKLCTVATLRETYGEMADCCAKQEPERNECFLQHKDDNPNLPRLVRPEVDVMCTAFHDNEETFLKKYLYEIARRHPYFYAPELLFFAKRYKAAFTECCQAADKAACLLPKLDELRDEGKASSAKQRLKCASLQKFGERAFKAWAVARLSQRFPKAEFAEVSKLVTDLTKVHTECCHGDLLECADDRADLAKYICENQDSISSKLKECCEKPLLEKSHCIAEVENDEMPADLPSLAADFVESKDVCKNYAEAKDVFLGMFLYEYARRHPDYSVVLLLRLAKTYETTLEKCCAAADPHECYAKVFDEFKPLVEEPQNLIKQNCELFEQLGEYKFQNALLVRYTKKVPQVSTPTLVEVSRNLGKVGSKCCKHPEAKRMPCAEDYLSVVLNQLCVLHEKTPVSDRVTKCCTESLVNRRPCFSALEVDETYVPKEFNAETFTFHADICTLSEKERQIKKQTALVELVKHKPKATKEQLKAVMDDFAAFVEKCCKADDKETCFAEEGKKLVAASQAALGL
Sequence of Kynurenine/alpha-aminoadipate aminotransferase, mitochondrial (Homo sapiens) (Q8N5Z0 30-425 limits assumed): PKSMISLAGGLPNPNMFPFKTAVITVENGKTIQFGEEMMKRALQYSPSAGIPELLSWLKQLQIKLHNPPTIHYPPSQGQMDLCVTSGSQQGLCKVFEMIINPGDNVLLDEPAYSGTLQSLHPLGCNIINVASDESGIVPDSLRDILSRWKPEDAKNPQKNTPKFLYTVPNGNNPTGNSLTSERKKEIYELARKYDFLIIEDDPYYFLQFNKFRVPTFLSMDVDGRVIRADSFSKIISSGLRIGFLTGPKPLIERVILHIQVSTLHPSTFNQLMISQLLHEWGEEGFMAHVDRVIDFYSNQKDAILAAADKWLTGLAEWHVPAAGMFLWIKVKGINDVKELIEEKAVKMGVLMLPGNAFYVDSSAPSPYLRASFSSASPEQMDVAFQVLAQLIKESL
Sequence of Tryptophan 2,3-dioxygenase (Homo sapiens) (P48775 whole entry, looked up): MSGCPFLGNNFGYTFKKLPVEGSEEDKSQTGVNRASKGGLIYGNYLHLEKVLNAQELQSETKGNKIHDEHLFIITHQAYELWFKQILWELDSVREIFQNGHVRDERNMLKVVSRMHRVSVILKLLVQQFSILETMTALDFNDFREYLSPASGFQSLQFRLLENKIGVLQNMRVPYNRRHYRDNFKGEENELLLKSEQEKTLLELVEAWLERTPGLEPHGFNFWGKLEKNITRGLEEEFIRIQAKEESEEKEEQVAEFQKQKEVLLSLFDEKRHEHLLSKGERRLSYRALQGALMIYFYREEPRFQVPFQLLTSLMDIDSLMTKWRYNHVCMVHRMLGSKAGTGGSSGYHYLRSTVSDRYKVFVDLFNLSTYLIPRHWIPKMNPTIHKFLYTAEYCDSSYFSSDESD

Molecule `Cc1ccc([C@@H](C)Oc2cc3onc(CCC(=O)O)c3cc2Cl)nn1.NC(CO)(CO)CO` has a solubility at 24 h [1] of 230 µg/mL.

In the case of `Cc1cc2oc(=O)n(CCC(=O)O)c2cc1Cl.NC(CO)(CO)CO`, the solubility at 24 h [1] is reported as greater than 127000 µg/mL, the Papp [2] is reported as 0.3 to 1 ×10⁻⁶ cm/s and the fraction unbound (serum albumin) is reported as 0.05. The logD [3] was 1.26 and the IC50 [4] was 631 nM.

For `O=C(O)CCn1c(=O)oc2cc(OCc3ccccn3)c(Cl)cc21` [listing 1 of 2 here], the Ki [5] was 1 nM.

With `C[C@@H](Oc1cc2oc(=O)n(CCC(=O)O)c2cc1Cl)c1cccnn1` the IC50 [5] was 1.26 nM, the Papp [2] was less than 0.3 ×10⁻⁶ cm/s and the fraction unbound (serum albumin) was 0.409. It also gave a fraction unbound [6] of 0.319, a logD [3] of 0.83 and an IC50 [4] of 631 nM.

`NC(CO)(CO)CO.O=C(O)CCn1c(=O)oc2cc(Cl)c(Cl)cc21` showed a solubility at 24 h [1] of 270 µg/mL.

With `C[C@@H](Oc1cc2onc(CCC(=O)O)c2cc1Cl)c1ccccn1.NCCO` the concentration at 5 h [7] was 600 µM.

`C[C@@H](Oc1cc2oc(=O)n(CCC(=O)O)c2cc1Cl)c1ccccn1` showed a T1/2 [8] of 2 h.

Molecule `O=C(O)CCn1c(=O)oc2cc(OCc3ccccn3)c(Cl)cc21` [listing 2 of 2 here] has a T1/2 [8] of 0.5 h.

With `C[C@@H](Oc1cc2onc(CCC(=O)O)c2cc1Cl)c1ccccn1` the inhibition (Rattus norvegicus [9]) was “Active”, the Activity (Rattus norvegicus [10]) was “Active” and the Activity (Rattus norvegicus [11]) was “inactive”. The Activity (Rattus norvegicus [12]) was “inactive”, the Activity (Rattus norvegicus [13]) was “Active” and the Activity (Rattus norvegicus [14]) was “Active”. The Activity (Rattus norvegicus [15]) was “Dose-dependent effect”, the Activity (Rattus norvegicus [16]) was “Active” and the inhibition (Rattus norvegicus [17]) was “Active”. The inhibition (Homo sapiens) was “inactive”, the inhibition (Rattus norvegicus [18]) was “Dose-dependent effect” and the inhibition [19] was “inactive”. For the same molecule, the Activity (Rattus norvegicus [20]) was “inactive”, the Activity (Rattus norvegicus [21]) was “Active” and the inhibition [22] was “inactive”. The Activity (Rattus norvegicus [23]) was “Dose-dependent effect”, the Activity (Rattus norvegicus [24]) was “Active” and the T1/2 [25] was 10 h. The Activity (Rattus norvegicus [26]) was “Active”, the inhibition [27] was “inactive” and the inhibition [28] was “inactive”. The Activity (Rattus norvegicus [29]) was “Active”, the Activity (Rattus norvegicus [30]) was “Active” and the inhibition (Rattus norvegicus [31]) was “Active”.

Molecule `C[C@@H](Oc1cc2onc(CCC(=O)O)c2cc1Cl)c1ccc(Cl)cn1.NC(CO)(CO)CO` has a solubility at 24 h [1] greater than 620 µg/mL, a fraction unbound (serum albumin) of 0.01 and a fraction unbound [6] of 0.002. For the same molecule, the logD [3] was 2.91.

In the case of `CCOc1cc2oc(=O)n(CCC(=O)O)c2cc1Cl.NC(CO)(CO)CO`, the solubility at 24 h [1] is reported as greater than 1880 µg/mL, the Papp [2] is reported as less than 1 ×10⁻⁶ cm/s and the fraction unbound (serum albumin) is reported as 0.113. It also gave a fraction unbound [6] of 0.042 and a logD [3] of 1.49.
